Source: US7759366B2 (Sanofi-Aventis, priority 2006, dated 2010)

Biological target: hCB1R (Homo sapiens, UniProt P21554)
Test: Binding to the CB1 receptor ([3H]-SR141716A displacement)
Conditions: not given
Procedure: Binding to the CB1 Receptor:
Test compounds: The compounds (3 μl, 10 mM, 100% DMSO), pipetted into 96-well PP microtiter plates, were diluted with 27 μl of 100% DMSO (dimethyl sulfoxide). Proceeding from this solution, further 3-fold dilution steps were undertaken by transferring 10 μl in each case to a new PP microtiter plate and adding a further 20 μl of 100% DMSO. In each case 6 μl of these solutions were transferred into new 96-well PP microtiter plates and made up with 144 μl of assay buffer. The end concentrations ranged from 10 μM to 0.005 μM. Negative control: AM 251, dissolved in assay buffer with 1% DMSO, was added to the dilution series in the microtiter plates as a control. The end concentration was 1 μM. Blank control: assay buffer with 1% DMSO was added to the dilution series of the microtiter plates as a blank control.
Summary of the Assay Parameters:
High control: ^3H binding without addition of the compound
Low control: ^3H binding in the presence of 1 μM AM 251
The values were calculated using the corrected raw data.
The values reported were obtained as average values of a double determination. The IC50 values were calculated from the measurements with the program Xlfit, formula 205. Ki values were obtained from the IC50 and Kd values utilizing the Cheng-Prusoff equation: […]
Literature: Cheng, Y.-C., and Prusoff, W. H. (1973) Biochem. Pharmacol 22, 3099-3108

Sequence of hCB1R (P21554 whole entry): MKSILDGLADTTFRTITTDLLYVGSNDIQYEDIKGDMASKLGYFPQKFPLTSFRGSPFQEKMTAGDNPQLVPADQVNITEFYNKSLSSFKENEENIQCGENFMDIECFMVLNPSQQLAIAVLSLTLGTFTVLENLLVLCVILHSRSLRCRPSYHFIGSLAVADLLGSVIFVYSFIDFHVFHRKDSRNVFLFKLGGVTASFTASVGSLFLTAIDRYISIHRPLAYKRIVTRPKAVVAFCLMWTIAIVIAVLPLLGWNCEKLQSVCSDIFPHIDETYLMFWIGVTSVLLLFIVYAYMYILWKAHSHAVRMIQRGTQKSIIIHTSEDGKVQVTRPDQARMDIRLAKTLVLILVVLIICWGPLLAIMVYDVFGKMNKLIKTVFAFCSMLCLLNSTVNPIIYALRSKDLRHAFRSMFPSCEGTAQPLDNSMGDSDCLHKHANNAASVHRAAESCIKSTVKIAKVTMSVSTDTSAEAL

| Structure (SMILES) | Ki [nM] |
| --- | --- |
| CC1(C)C(=O)N(c2ccc(C#N)c(C(F)(F)F)c2)C(=O)N1Cc1ccccc1Nc1ccc(S(F)(F)(F)(F)F)cc1 [Example 26, 4-{3-[2-(4-pentafluorosulfanylphenylamino)benzyl]-4,4-dimethyl-2,5-dioxoimidazolidin-1-yl}-2-trifluoromethylbenzonitrile] | 39 |
| CC1(C)C(=O)N(c2ccc(C#N)c(C(F)(F)F)c2)C(=O)N1Cc1ccccc1Nc1ccc(Cl)cc1Cl [Example 13, 4-{3-[2-(2,4-dichlorophenylamino)benzyl]-4,4-dimethyl-2,5-dioxoimidazolidin-1-yl}-2-trifluoromethylbenzonitrile] | 0.9 |
| COC(=O)c1ccc(Nc2cc(F)ccc2CN2C(=O)N(c3ccc(C#N)c(C(F)(F)F)c3)C(=O)C2(C)C)cc1 [Example 111, Methyl 4-{2-[3-(4-cyano-3-trifluoromethylphenyl)-5,5-dimethyl-2,4-dioxoimidazolidin-1-ylmethyl]-5-fluorophenylamino}benzoate] | 1 |
| CCOC(=O)c1ccc(Nc2cc(C(F)(F)F)ccc2CN2C(=O)N(c3ccc(C#N)c(C(F)(F)F)c3)C(=O)C2(C)C)cc1 [Example 165, ethyl 4-{2-[3-(4-cyano-3-trifluoromethylphenyl)-5,5-dimethyl-2,4-dioxoimidazolidin-1-ylmethyl]-5-trifluoromethylphenylamino}benzoate] | 16 |
| COc1ccc(Nc2ccc(F)cc2)c(CN2C(=O)N(c3ccc(C#N)c(C(F)(F)F)c3)C(=O)C2(C)C)c1 [Example 7, 4-{3-[2-(4-fluorophenylamino)-5-methoxybenzyl]-4,4-dimethyl-2,5-dioxoimidazolidin-1-yl}-2-trifluoromethylbenzonitrile] | 15 |
| CC1(C)C(=O)N(c2ccc(C#N)c(C(F)(F)F)c2)C(=O)N1Cc1ccccc1Nc1ccc(C(=O)NCC(N)=O)cc1 [Example 161, N-carbamoylmethyl-4-{2-[3-(4-cyano-3-trifluoromethylphenyl)-5,5-dimethyl-2,4-dioxoimidazolidin-1-ylmethyl]phenylamino}benzamide] | 8 |
| COc1ccc(Nc2ccc(C(F)(F)F)cc2)c(CN2C(=O)N(c3ccc(C#N)c(C(F)(F)F)c3)C(=O)C2(C)C)c1 [Example 8, 4-{3-[5-methoxy-2-(4-trifluoromethylphenylamino)benzyl]-4,4-dimethyl-2,5-dioxoimidazolidin-1-yl}-2-trifluoromethylbenzonitrile] | 15 |
| CC1(C)C(=O)N(c2ccc(C#N)c(C(F)(F)F)c2)C(=O)N1Cc1ccccc1Nc1ccc(Oc2ccccc2)cc1 [Example 128, 4-{4,4-dimethyl-2,5-dioxo-3-[2-(4-phenoxyphenylamino)benzyl]-imidazolidin-1-yl}-2-trifluoromethylbenzonitrile] | 2 |
| CC1(C)C(=O)N(c2ccc(C#N)c(C(F)(F)F)c2)C(=O)N1Cc1ccccc1Nc1ccc2c(c1)OC(F)(F)O2 [Example 32, 4-{3-[2-(2,2-difluorobenzo[1,3]dioxol-5-ylamino)benzyl]-4,4-dimethyl-2,5-dioxoimidazolidin-1-yl}-2-trifluoromethylbenzonitrile] | 3 |
| CC1(C)C(=O)N(c2ccc(C#N)c(C(F)(F)F)c2)C(=O)N1Cc1ccccc1Nc1ccc([N+](=O)[O-])cc1 [Example 112, 4-{4,4-dimethyl-3-[2-(4-nitrophenylamino)benzyl]-2,5-dioxoimidazolidin-1-yl}-2-trifluoromethylbenzonitrile] | 1 |
| CC1(C)C(=O)N(c2ccc(C#N)c(C(F)(F)F)c2)C(=O)N1Cc1cc(F)ccc1Nc1ccc(F)cc1 [Example 15, 4-{3-[5-Fluoro-2-(4-fluorophenylamino)benzyl]-4,4-dimethyl-2,5-dioxoimidazolidin-1-yl}-2-trifluoromethylbenzonitrile] | 2 |
| CC1(C)C(=O)N(c2ccc(C#N)c(C(F)(F)F)c2)C(=O)N1Cc1ccccc1Nc1ccc(C(=O)NCCCS(C)(=O)=O)cc1 [Example 173, 4-{2-[3-(4-Cyano-3-trifluoromethylphenyl)-5,5-dimethyl-2,4-dioxoimidazolidin-1-ylmethyl]phenylamino}-N-(3-methanesulfonylpropyl)benzamide] | 34 |
| CC1(C)C(=O)N(c2ccc(C#N)c(C(F)(F)F)c2)C(=O)N1Cc1ccccc1Nc1ccc(C(=O)NCCO)cc1 [Example 149, 4-{2-[3-(4-cyano-3-trifluoromethylphenyl)-5,5-dimethyl-2,4-dioxoimidazolidin-1-ylmethyl]phenylamino}-N-(2-hydroxyethyl)benzamide] | 6 |
| CC1(C)C(=O)N(c2ccc(C#N)c(C(F)(F)F)c2)C(=O)N1Cc1ccccc1Nc1cccc(C(F)(F)F)c1 [Example 34, 4-{3-[2-(3-trifluoromethylphenylamino)benzyl]-4,4-dimethyl-2,5-dioxoimidazolidin-1-yl}-2-trifluoromethylbenzonitrile] | 14 |
| CC1(C)C(=O)N(c2ccc(C#N)c(C(F)(F)F)c2)C(=O)N1Cc1ccccc1Nc1cccc(S(N)(=O)=O)c1 [Example 153, 3-{2-[3-(4-Cyano-3-trifluoromethylphenyl)-5,5-dimethyl-2,4-dioxoimidazolidin-1-ylmethyl]phenylamino}benzenesulfonamide] | 20 |
| COC(=O)c1ccc(Nc2cc(F)ccc2CN2C(=O)N(c3ccc(C#N)c(C)c3)C(=O)C2(C)C)cc1 [Example 160, Methyl 4-{2-[3-(4-cyano-3-methylphenyl)-5,5-dimethyl-2,4-dioxoimidazolidin-1-ylmethyl]-5-fluorophenylamino}benzoate] | 3 |
| CC1(C)C(=O)N(c2ccc(C#N)c(C(F)(F)F)c2)C(=O)N1Cc1cc(C(F)(F)F)ccc1Nc1ccc(Cl)cc1 [Example 19, 4-{3-[2-(4-chlorophenylamino)-5-trifluoromethylbenzyl]-4,4-dimethyl-2,5-dioxoimidazolidin-1-yl}-2-trifluoromethylbenzonitrile] | 5 |
| COC(=O)c1ccc(Nc2cc(OC)ccc2CN2C(=O)N(c3ccc(C#N)c(C(F)(F)F)c3)C(=O)C2(C)C)cc1 [Example 110, Methyl 4-{2-[3-(4-cyano-3-trifluoromethylphenyl)-5,5-dimethyl-2,4-dioxoimidazolidin-1-ylmethyl]-5-methoxyphenylamino}benzoate] | 5 |
| CC1(C)C(=O)N(c2ccc(F)c(C(F)(F)F)c2)C(=O)N1Cc1ccccc1Nc1ccc(C#N)cc1 [Example 134, 4-{2-[3-(4-fluoro-3-trifluoromethylphenyl)-5,5-dimethyl-2,4-dioxoimidazolidin-1-ylmethyl]phenylamino}benzonitrile] | 4 |
| CC1(C)C(=O)N(c2ccc(C#N)c(C(F)(F)F)c2)C(=O)N1Cc1cc(F)ccc1Nc1ccccc1 [Example 18, 4-[3-(5-fluoro-2-phenylaminobenzyl)-4,4-dimethyl-2,5-dioxoimidazolidin-1-yl]-2-trifluoromethylbenzonitrile] | 5 |

Same assay, conditions: CHO-K1/cannabinoid CB1 protein 2 μg/well; [3H]-SR141716A 0.5 nM; Ki from IC50 by Cheng-Prusoff; average of double determination; read-out: hCB1R; binding Ki

| Ki [nM] | Structure (SMILES) |
| --- | --- |
| 113 | CC1(C)C(=O)N(c2ccc(F)c(C(F)(F)F)c2)C(=O)N1Cc1ccc(F)cc1Nc1ccc(C(=O)NC[C@H](O)[C@@H](O)[C@H](O)[C@H](O)CO)cc1 [Example 170, 4-{5-Fluoro-2-[3-(4-fluoro-3-trifluoromethylphenyl)-5,5-dimethyl-2,4-dioxoimidazolidin-1-ylmethyl]phenylamino}-N-((2S,3R,4R,5R)-2,3,4,5,6-pentahydroxyhexyl)benzamide] |
| 11 | CC1(C)C(=O)N(c2ccc(F)c(C(F)(F)F)c2)C(=O)N1Cc1ccccc1Nc1ccc(F)cc1 [Example 24, 1-[2-(4-fluorophenylamino)benzyl]-3-(4-fluoro-3-trifluoromethylphenyl)-5,5-dimethylimidazolidine-2,4-dione] |
| 4 | COC(=O)c1ccc(Nc2cc(F)ccc2CN2C(=O)N(c3ccc(C#N)c(-c4ccccc4)c3)C(=O)C2(C)C)cc1 [Example 223] |
| 6 | CC1(C)C(=O)N(c2ccc(F)c(C(F)(F)F)c2)C(=O)N1Cc1ccccc1Nc1ccc(Cl)cc1 [Example 25, 1-[2-(4-chlorophenylamino)benzyl]-3-(4-fluoro-3-trifluoromethylphenyl)-5,5-dimethylimidazolidine-2,4-dione] |
| 11 | CC1(C)C(=O)N(c2ccc(Oc3ccc(Cl)cc3)c(C(F)(F)F)c2)C(=O)N1Cc1ccccc1Nc1ccc(F)cc1F [Example 50, 3-[4-(4-Chlorophenoxy)-3-trifluoromethylphenyl]-1-[2-(2,4-difluorophenylamino)benzyl]-5,5-dimethylimidazolidine-2,4-dione] |
| 120 | CC1(C)C(=O)N(c2ccc(F)c(C(F)(F)F)c2)C(=O)N1Cc1ccc(F)cc1Nc1ccc(C(=O)N2CCC(O)CC2)cc1 [Example 171, 1-{4-Fluoro-2-[4-(4-hydroxypiperidine-1-carbonyl)phenylamino]benzyl}-3-(4-fluoro-3-trifluoromethylphenyl)-5,5-dimethylimidazolidine-2,4-dione] |
